Source: PMC11945486, “TAS1R2/TAS1R3 Single-Nucleotide Polymorphisms Affect Sweet Taste Receptor Activation by Sweeteners: The SWEET Project” (Nutrients, 2025)
Like-named read-outs stand apart in the source and are kept apart here. No end group written: not given here.

T1: human TAS1R2-WT/TAS1R3-P780A (Homo sapiens, UniProt Q7RTX0+Q8TE23, P780A)
T1 construct: expressed in transfected cells; host or cells: HEK293T stably expressing Gα16gust44
T1 sequence (Q8TE23 20-839): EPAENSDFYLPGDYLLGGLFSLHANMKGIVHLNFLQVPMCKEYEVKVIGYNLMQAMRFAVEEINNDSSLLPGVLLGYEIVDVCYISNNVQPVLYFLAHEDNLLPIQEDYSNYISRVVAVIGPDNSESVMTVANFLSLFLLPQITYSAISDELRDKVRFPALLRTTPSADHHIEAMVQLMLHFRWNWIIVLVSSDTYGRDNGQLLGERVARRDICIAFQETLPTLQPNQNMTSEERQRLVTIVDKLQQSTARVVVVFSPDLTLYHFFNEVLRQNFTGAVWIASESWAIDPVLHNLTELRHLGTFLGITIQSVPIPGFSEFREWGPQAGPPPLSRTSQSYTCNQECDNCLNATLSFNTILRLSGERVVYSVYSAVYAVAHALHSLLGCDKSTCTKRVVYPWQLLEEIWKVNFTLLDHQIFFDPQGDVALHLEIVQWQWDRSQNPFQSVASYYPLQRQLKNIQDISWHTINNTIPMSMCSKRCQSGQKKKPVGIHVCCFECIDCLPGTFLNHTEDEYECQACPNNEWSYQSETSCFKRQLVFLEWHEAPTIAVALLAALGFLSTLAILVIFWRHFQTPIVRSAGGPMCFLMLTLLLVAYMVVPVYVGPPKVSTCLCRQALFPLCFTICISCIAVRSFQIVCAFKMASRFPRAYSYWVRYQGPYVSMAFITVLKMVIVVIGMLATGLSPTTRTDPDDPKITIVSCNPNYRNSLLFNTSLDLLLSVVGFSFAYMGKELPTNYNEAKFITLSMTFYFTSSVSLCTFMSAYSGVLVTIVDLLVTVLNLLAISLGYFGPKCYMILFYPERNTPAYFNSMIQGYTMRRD
T1 sequence (Q7RTX0 21-852 P780A): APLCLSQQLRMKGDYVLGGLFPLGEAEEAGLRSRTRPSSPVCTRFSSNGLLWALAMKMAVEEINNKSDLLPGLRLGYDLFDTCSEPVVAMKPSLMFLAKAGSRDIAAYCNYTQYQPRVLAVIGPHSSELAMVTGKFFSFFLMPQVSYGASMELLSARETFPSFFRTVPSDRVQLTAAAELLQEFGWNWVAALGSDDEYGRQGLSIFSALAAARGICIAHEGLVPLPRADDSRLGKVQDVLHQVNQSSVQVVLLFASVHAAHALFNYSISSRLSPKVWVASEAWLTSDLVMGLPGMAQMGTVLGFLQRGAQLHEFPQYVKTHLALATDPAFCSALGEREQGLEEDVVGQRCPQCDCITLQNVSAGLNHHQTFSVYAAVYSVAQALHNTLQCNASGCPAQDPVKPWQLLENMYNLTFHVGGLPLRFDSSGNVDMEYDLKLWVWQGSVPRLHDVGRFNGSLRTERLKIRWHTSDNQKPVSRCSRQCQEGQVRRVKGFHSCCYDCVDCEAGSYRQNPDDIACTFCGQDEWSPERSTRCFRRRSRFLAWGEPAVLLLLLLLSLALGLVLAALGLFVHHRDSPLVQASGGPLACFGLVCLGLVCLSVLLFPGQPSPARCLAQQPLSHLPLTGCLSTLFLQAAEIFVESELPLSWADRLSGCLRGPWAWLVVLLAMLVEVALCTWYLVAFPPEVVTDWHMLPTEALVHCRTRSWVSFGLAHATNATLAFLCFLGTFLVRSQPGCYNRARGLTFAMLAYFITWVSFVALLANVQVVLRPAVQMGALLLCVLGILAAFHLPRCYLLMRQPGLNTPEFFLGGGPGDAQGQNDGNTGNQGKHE


Biological target: T1, human TAS1R2-WT/TAS1R3-P780A
Assay: Calcium mobilisation assay, TAS1R2-WT with TAS1R3 variant P780A
Assay type: cell-based
Details: for Max ΔF/F0: maximal signal amplitude
Excerpt: The coding sequences for TAS1R2 and TAS1R3 were commercially synthesised, and the human codon was optimised for expression in human cells. The coding sequences of human TAS1R2 and TAS1R3 were subcloned and inserted into the mammalian expression vectors pcDNA6/myc-HisA and pcDNA4/myc-HisA (Invitrogen; Thermo Fisher Scientific; Illkirch, France) between the EcoRI and NotI restriction sites, generating the plasmids pcDNA6-TAS1R2 and pcDNA4-TAS1R3, respectively. To increase protein expression in mammalian cells, an upstream start codon was used, which was a sequence called MAX, corresponding to the QBI SP163 element also described in pcDNA4-HisMax (Invitrogen; Thermo Fisher Scientific; Illkirch, France). To measure the expression level of the receptor by immunohistochemistry, we used the FLAG sequence ([…]) in the C-terminal position, which encodes the FLAG tag epitope. SNP variants of TAS1R2 and TAS1R3 were constructed based on […], respectively, using site-directed mutagenesis (Genewiz; Leipzig, Germany).
The HEK293T cells were kindly provided by Jay P. Slack (Givaudan Flavors Corporation; Cincinnati, OH, USA). HEK293T cells stably transfected with Gα16gust44 [43, 67] were seeded in poly-D-lysine-coated clear-bottom black 96-well plates (0.35 × 10^5 cells/well) in high-glucose DMEM supplemented with 2 mM GlutaMAX, 10% dialysed foetal bovine serum with penicillin/streptomycin and G418 (400 μg/mL) at 37 °C and 6.3% CO2 in a humidified atmosphere as previously reported. […] As a negative control, HEK293T cells were mock-transfected with the empty expression vector. After a further 24 h of incubation, the HEK293T cells were washed with C1 buffer (130 mM NaCl, 5 mM KCl, 10 mM HEPES pH 7.4 and 2 mM CaCl2). The 96-well plates containing the cells were then stimulated with sweet-tasting compounds. […] Different concentration ranges were tested depending on the sweet compound injected. The Ca^2+ changes were expressed as fractional changes in fluorescent light intensity: ΔF/F = (F − F0)/F0, where F was the fluorescent light intensity at each point, and F0 was the value of emitted fluorescent light prior to stimulus application. To calculate dose–response relationships, the changes in fluorescence upon stimulus application were averaged, mock-subtracted and baseline-corrected. The dose–response data obtained were adjusted using a 4-parameter logistic equation. The half-maximal effective concentrations (EC50 values) and maximal signal amplitudes were calculated using SigmaPlot software (version 15.0) (Systat Software; San Jose, CA, USA).
For in vitro calcium mobilisation assay performed on hTAS1R2-SNPs, hTAS1R3-SNPs and mTAS1R3-I60T, 6 to 7 concentrations were tested for each sweet compound, plus buffer alone. All concentration–receptor combinations were measured in duplicate, and each experiment was repeated at least 4 times (8 wells/concentration). Results were expressed for each concentration as ΔF/F mean ± SEM and represented as dose–response curves.

| Molecule | R1 = Variant EC50/WT EC50 | Max ΔF/F0 | EC50 (read-out: EC50) | EC50 (brazzein) |
| --- | --- | --- | --- | --- |
| CC1=CC(=O)NS(=O)(=O)O1 [Acesulfame K, acesulfame K] | 0.7 | 0.30 ± 0.01 | 421 ± 31 µM |  |
| O=S(=O)(O)NC1CCCCC1 [Cyclamate, cyclamate] |  |  | 1170 ± 62 µM |  |
| C[C@H](CC[C@@H](O[C@@H]1O[C@H](CO[C@@H]2O[C@H](CO)[C@@H](O)[C@H](O)[C@H]2O)[C@@H](O)[C@H](O)[C@H]1O[C@@H]1O[C@H](CO)[C@@H](O)[C@H](O)[C@H]1O)C(C)(C)O)[C@H]1CC[C@@]2(C)[C@@H]3CC=C4[C@@H](CC[C@H](O[C@@H]5O[C@H](CO[C@@H]6O[C@H](CO)[C@@H](O)[C@H](O)[C@H]6O)[C@@H](O)[C@H](O)[C@H]5O)C4(C)C)[C@]3(C)[C@H](O)C[C@]12C [Mogroside V, mogroside V] | 0.7 | 1.13 ± 0.04 | 22.5 ± 2.2 µM |  |
| COc1ccc(CCC(=O)c2c(O)cc(O[C@@H]3O[C@H](CO)[C@@H](O)[C@H](O)[C@H]3O[C@@H]3O[C@@H](C)[C@H](O)[C@@H](O)[C@H]3O)cc2O)cc1O [NHDC, neohesperidin dihydrochalcone] | 0.9 | 1.50 ± 0.01 | 46.4 ± 12.9 µM |  |
| COC(=O)[C@H](Cc1ccccc1)NC(=O)[C@H](CC(=O)O)NCCC(C)(C)C [Neotame] | 0.8 | 0.63 ± 0.02 | 1.03 ± 0.08 µM |  |
| C=C(C)[C@@H]1CC=C(/C=N/O)CC1 [Perillartine, perillartine] | 0.9 | 1.44 ± 0.20 | 12.7 ± 5 µM |  |

The next lines start with the values.

| R1 = Variant EC50/WT EC50 | Max ΔF/F0 | EC50 (read-out: EC50) | EC50 (brazzein) | Molecule |
| --- | --- | --- | --- | --- |
| 0.6 | 1.21 ± 0.05 | 23 ± 2.6 µM |  | C=C1C[C@@]23CC[C@H]4[C@@](C)(CCC[C@@]4(C)C(=O)O[C@@H]4O[C@H](CO)[C@@H](O)[C@H](O[C@@H]5O[C@H](CO)[C@@H](O)[C@H](O)[C@H]5O)[C@H]4O[C@@H]4O[C@H](CO)[C@@H](O)[C@H](O)[C@H]4O)[C@@H]2CC[C@]1(O[C@@H]1O[C@H](CO)[C@@H](O)[C@H](O[C@@H]2O[C@H](CO)[C@@H](O)[C@H](O)[C@H]2O)[C@H]1O[C@@H]1O[C@H](CO)[C@@H](O)[C@H](O)[C@H]1O)C3 [Rebaudioside M, rebaudioside M] |
| 1.4 | 0.76 ± 0.03 | 149 ± 12 µM |  | OC[C@H]1O[C@H](O[C@]2(CCl)O[C@H](CCl)[C@@H](O)[C@@H]2O)[C@H](O)[C@@H](O)[C@H]1Cl [Sucralose] |
| 0.7 | 1.06 ± 0.06 |  | 80.7 ± 14.8 mg/L | brazzein (QDKCKKVYENYPVSKCQLANQCNYDCKLDKHARSGECFYDEKRNLQCICDYCEY; ends and bridges not checked; cysteine pairing not given here; UniProt P56552 1-54, looked up) [sweet-tasting protein obtained by recombinant production using the yeast Pichia pastoris] |
| 0.8 | 0.86 ± 0.06 |  |  | thaumatin |
|  |  | 7.8 ± 1.3 µM |  | thaumatin (protein, Eight disulfides, sweet-tasting plant protein, E957) ATFEIVNRCSYTVWAAASKGDAALDAGGRQLNSGESWTINVEPGTKGGKIWARTDCYFDDSGSGICKTGDCGGLLRCKRFGRPPTTLAEFSLNQYGKDYIDISNIKGFNVPMDFSPTTRGCRGVRCAADIVGQCPAKLKAPGGGCNDACTVFQTSEYCCTTGKCGPTEYSRFFKRLCPDAFSYVLDKPTTVTCPGSSNYRVTFCPTA |
